Test results from patent publication US4010191A, “Acyl derivatives of substituted bis-arylalkylamino compounds” (Deutsche Gold- und Silber-Scheideanstalt vormals Roessler, priority 1969, dated 1977).

Tests used:
heart = test: Heart and circulatory action, comparative tests with papaverine (Langendorff hearts / dogs); set-up: species or system guinea pig; dog
Protocol: The compounds of the invention were tested in detached guinea pig hearts by the method of Langendorff (Pfluger's Arch. 61 (1895) 291) in respect of the coronary flow, the inotropic action and the heart frequency. Also there were tested in anaesthetized dogs which had been subjected to a thoracostomy.
The significant parameters of the heart and circulatory activity in this case were determined by means of electromagnetic flux measurement and pressure measurement in the interior of the heart ventricle.

[1] = tested on: detached tracheas obtained from guinea pigs; test: Broncholytic action on detached tracheas (histamine spasm); set-up: species or system guinea pig; conditions: comparative tests

COc1ccc(Cc2nccc3cc(OC)c(OC)cc23)cc1OC [papaverine]
inotropy compared with the compounds of the invention (heart): smaller inotropy | duration of action compared with the compounds of the invention (heart; heart and circulatory action): substantially shorter duration of action | duration of action compared to the compounds of the invention [1]: substantially shorter duration
